Measured values taken from US10342796B2, “Acrylanilide derivative, preparation method, and applications thereof in pharmacy” (Ancureall Pharmaceutical (Shanghai) Co., Ltd., priority 2015, dated 2019).
Like-named read-outs stand apart in the source and are kept apart here.

Columns and labels:
Assay in all cases: Growth inhibition GI50 in vitro (CCK8/MTT, 72 h)
Format in all cases: cell-based, human
HCC827 (EGFR dE746-A750) = details: EGFR mutant cell line, range of GI50, read-out: GI50 HCC827
PC-9 (EGFR dE746-A750) = details: EGFR mutant cell line, range of GI50, read-out: GI50 PC-9
H1975 (EGFR L858R/T790M) = details: EGFR mutant cell line, range of GI50, read-out: GI50 H1975
[1] = test system: PC-9ER (EGFR delE746-A750/T790M); details: EGFR mutant cell line, range of GI50, read-out: GI50 PC9ER
[2] = test system: A431 (EGFR WT, amplification and high expression); details: EGFR wild type cell line, range of GI50, read-out: GI50 A431
[3] = test system: H1299 (EGFR wt, Nras Q61K); details: EGFR wild type cell line, range of GI50, read-out: GI50 H1299
A549 (EGFR WT) = details: EGFR wild type cell line, range of GI50, read-out: GI50 A549
[4] = test system: H460 (EGFR wt, Kras G61H); details: EGFR wild type cell line, range of GI50, read-out: GI50 H460
N87 (HER2 Amp) = details: HER2 positive cell line, range of GI50, read-out: GI50 N87
AU565 (Her2 amp) = details: HER2 positive cell line, range of GI50, read-out: GI50 AU-565
SK-BR-3 (Her2 amp) = details: HER2 positive cell line, range of GI50, read-out: GI50 SK-BR-3

Structure (SMILES) | GI50 (HCC827 (EGFR dE746-A750); Homo sapiens, HCC827) [nM] | GI50 (PC-9 (EGFR dE746-A750); Homo sapiens) [nM] | GI50 (H1975 (EGFR L858R/T790M); Homo sapiens, NCI-H1975) [nM] | GI50 ([1]; Homo sapiens, PC-9/ER) [nM] | GI50 ([2]; Homo sapiens, A-431) [nM] | GI50 ([3]; Homo sapiens, NCI-H1299) [nM] | GI50 (A549 (EGFR WT); Homo sapiens, A549) [nM] | GI50 ([4]; Homo sapiens, NCI-H460) [nM] | GI50 (N87 (HER2 Amp); Homo sapiens) [nM] | GI50 (AU565 (Her2 amp); Homo sapiens, AU565) [nM] | GI50 (SK-BR-3 (Her2 amp); Homo sapiens, SK-BR-3) [nM] | further results
C=CC(=O)Nc1cc(Nc2nccc(-n3ccc4ccc(C)cc43)n2)c(OC)cc1N(C)CCN(C)C [Compound 59] | 10 to 100 | 10 to 100 | 10 to 100 | 10 to 100 | 100 to 1000 | > 1000 | > 1000 | > 1000 | 100 to 1000 | 100 to 1000 | 100 to 1000 | –
C=CC(=O)Nc1cc(Nc2cc(Nc3ccc(F)c(Cl)c3)ncn2)c(OC)cc1OCCN1CCN(C)CC1 [Compound 150, N-(5-(6-(3-chloro-4-fluoro-phenylamino)-pyrimidin-4-ylamino)-2-(2-(4-methyl-piperazin-lyl)-ethoxyl)-4-methoxyl-phenyl)-acrylamide] | < 10 | < 10 | < 10 | < 10 | 10 to 100 | > 1000 | > 1000 | > 1000 | 10 to 100 | 10 to 100 | < 10 | –
C=CC(=O)Nc1cc(Nc2cc(Nc3ccc(F)c(Cl)c3)ncn2)c(OC)cc1OCCN(C)C [Compound 148, N-(5-(6-(3-chloro-4-fluoro-phenylamino)-pyrimidin-4-ylamino)-2-(2-dimethylamino-ethoxyl)-4-methoxyl-phenyl)-acrylamide] | < 10 | < 10 | < 10 | < 10 | 10 to 100 | > 1000 | > 1000 | > 1000 | 10 to 100 | < 10 | < 10 | –
C=CC(=O)Nc1cc(Nc2nccc(-n3nnc4ccccc43)n2)c(OC)cc1N(C)CCN(C)C [Compound 107] | 10 to 100 | 10 to 100 | 10 to 100 | 10 to 100 | > 1000 | > 1000 | > 1000 | > 1000 | 10 to 100 | 100 to 1000 | 10 to 100 | –
C=CC(=O)Nc1cc(Nc2nccc(Nc3cccc(Cl)c3F)n2)c(OC)cc1N(C)CCN(C)C [Compound 14, N-(5-(4-(3-chloro-2-fluorophenyl-amino)-pyrimidin-2-ylamino)-2-(2-(dimethylamino-ethyl)-methyl-amino)-4-methoxyl-phenyl)-acrylamide] | 10 to 100 | 10 to 100 | 100 to 1000 | 100 to 1000 | > 1000 | > 1000 | > 1000 | > 1000 | 100 to 1000 | 100 to 1000 | 100 to 1000 | –
C=CC(=O)Nc1cc(Nc2nccc(-n3ccc4ccc(Cl)cc43)n2)c(OC)cc1N(C)CCN(C)C [Compound 61, N-(5-(4-(6-chloro-1H-indol-1-yl)-pyrimidin-2-ylamino)-2-((2-(dimethylamino)ethyl)-methyl-amino)-4-methoxyl-phenyl)-acrylamide] | 10 to 100 | 10 to 100 | < 10 | < 10 | 100 to 1000 | > 1000 | > 1000 | > 1000 | 100 to 1000 | 100 to 1000 | 100 to 1000 | –
C=CC(=O)Nc1cc(Nc2nccc(N3CCc4ccccc43)n2)c(OC)cc1N(C)CCN(C)C [Compound 31] | 10 to 100 | 10 to 100 | 10 to 100 | < 10 | 100 to 1000 | > 1000 | > 1000 | > 1000 | 100 to 1000 | 100 to 1000 | 100 to 1000 | –
C=CC(=O)Nc1cc(Nc2cc(-c3cn(CC)c4ccccc34)ncn2)c(OC)cc1N(C)CCN(C)C [Compound 181, N-{2-((2-dimethylamino-ethyl)-methylamino)-5-[6-(1-ethyl-1H-indol-3-yl)-pyrimidin-4-ylamino]-4-methoxyl-phenyl}-acrylamide] | < 10 | < 10 | 10 to 100 | < 10 | 100 to 1000 | > 1000 | > 1000 | > 1000 | 10 to 100 | 10 to 100 | 10 to 100 | –
C=CC(=O)Nc1cc(Nc2ncnc(Nc3cccc(C(F)(F)F)c3)n2)c(OC)cc1N(C)CCN(C)C [Compound 113, N-(5-(4-(3-trifluoromethyl-phenylamino)-[1,3,5]triazin-2-ylamino)-2-((2-dimethylamino-ethyl)-methyl-amino)-4-methoxyl-phenyl)-acrylamide] | < 10 | < 10 | 10 to 100 | < 10 | 100 to 1000 | > 1000 | > 1000 | > 1000 | 10 to 100 | 10 to 100 | 100 to 1000 | –
C=CC(=O)Nc1cc(Nc2cc(-c3cn(C)c4ccccc34)ncn2)c(OC)cc1N(C)CCN1CCCC1 [Compound 178, N-(4-methoxyl-5-(6-(1-methyl-1H-indol-3-yl)-pyrimidin-4-ylamino)-2-(methyl-(2-pyrrolidin-1-yl-ethyl)-amino)-phenyl)-acrylamide] | < 10 | < 10 | 10 to 100 | 10 to 100 | 100 to 1000 | > 1000 | > 1000 | > 1000 | 10 to 100 | 100 to 1000 | 100 to 1000 | –
C#Cc1cccc(Nc2ccnc(Nc3cc(NC(=O)C=C)c(N(C)CCN(C)C)cc3OC)n2)c1 [Compound 8, N-(5-(4-(3-acetenyl-phenylamino)-pyrimidin-2-ylamino)-2-(2-(dimethylamino-ethyl)-methyl-amino)-4-methoxyl-phenyl)-acrylamide] | – | – | – | – | – | – | – | – | – | – | – | GI50 (HCC827 (EGFR dE746-A750)): 10 to 100 nM; GI50 (PC-9 (EGFR dE746-A750)): 10 to 100 nM; GI50 (H1975 (EGFR L858R/T790M)): 10 to 100 nM; GI50 [1]: < 10 nM; GI50 [2]: 100 to 1000 nM; GI50 [3]: > 1000 nM; GI50 (A549 (EGFR WT)): > 1000 nM; GI50 [4]: > 1000 nM; GI50 (N87 (HER2 Amp)): 10 to 100 nM; GI50 (AU565 (Her2 amp)): 100 to 1000 nM; GI50 (SK-BR-3 (Her2 amp)): 10 to 100 nM
C=CC(=O)Nc1cc(Nc2nccc(-n3ccc4ccccc43)n2)c(OC)cc1N(C)CCN(C)C [Compound 32] | 10 to 100 | 10 to 100 | 10 to 100 | < 10 | 100 to 1000 | > 1000 | > 1000 | > 1000 | 10 to 100 | 10 to 100 | 100 to 1000 | –
